The source of these data is publication PMC12207360, “Hyperpolarization Modulation of the T‐Type hCav3.2 Channel by Human Synenkephalin [1–53], a Shrew Neurotoxin Analogue without Paralytic Effects” (Angewandte Chemie (International Ed. in English), 2025).

One series has as its system trypsin. Particulars: core N-terminal 1–41 part of BPP2; cited from earlier work. As for the experimental part:
(§1) To determine the connectivity of disulfide bonds in synthetic 2, enzymatic digestion and subsequent fragment peptide analysis were performed. […] However, due to high proteolytic stability, analysis of these degraded products provid ...

The test system of series [1] is glutamyl endopeptidase (Glu-C). Particulars: core N-terminal 1–41 part of BPP2; cited from earlier work. As for the experimental part: as §1
Series [2] relates to human T-type voltage-gated calcium channel (hCav3.2). Particulars: 0.84 µM; synthetic BPP2; cited from earlier work. The source says:
(§2) The short‐tailed shrew Blarina brevicauda is one of the rare venomous mammals that has potent neurotoxins in its saliva and effectively captures prey such as earthworms and small insects.^[ [25] ^] Since Blarina shrew venom causes severe pain in those bitten,^[ [26] ^] it was predicted that the venom targets specific ion channels related to pain and neurotransmission.^[ [27] ^] Recently, we isolated and characterized Blarina paralytic peptides (BPPs) 1 and 2 as major active substances against mealworms (Figure 1a).^[ [28] ^] BPP2 was chemically synthesized based on the gene sequence of the pre ...

Another series concerns hCav2.2. To be noted: synthetic BPP2; cited from earlier work.
Excerpt: as §2

Series [3] has as its system mealworms (larva of Zophobas atratus). To be noted: cited from earlier work.
The conditions of series [4]: ColabFold-predicted structure, cited from earlier work. An excerpt: To compare the structural properties of hSYN and BPP2, we next examined their three‐dimensional structures using ColabFold^[ [64] ^] (a Google Colab version of AlphaFold2^[ [65] ^] using MMSeq2^[ [66] ^]). […] The four helical structures of hSYN were hi ... || Figure 3 Proposed three‐dimensional structures of hSYN and BPP2. a) ColabFold‐predicted structure of hSYN. Disulfide bonds are highlighted in orange sticks. b) Proposed helices in the calculated structures. c) CD spectra of hSYN. Obs: Synthetic 2 (20 µM) was measured in 50 mM potassium phosphate (pH 7.0) at 25 °C. Calc: The ColabFold‐predicted structure was analyzed using the PDBMD2CD server. d) Calculated helicities (%) of each model by three methods based on the CD spectra. e) Superimposed structures of hSYN (blue white) and BPP2 (pale green). Key residues that interact between the helixes a ...

Series [5] deals with human T-type voltage-gated calcium channel hCav3.2 (human) (UniProt O95180).
Chain of UniProt O95180 (O95180 whole entry): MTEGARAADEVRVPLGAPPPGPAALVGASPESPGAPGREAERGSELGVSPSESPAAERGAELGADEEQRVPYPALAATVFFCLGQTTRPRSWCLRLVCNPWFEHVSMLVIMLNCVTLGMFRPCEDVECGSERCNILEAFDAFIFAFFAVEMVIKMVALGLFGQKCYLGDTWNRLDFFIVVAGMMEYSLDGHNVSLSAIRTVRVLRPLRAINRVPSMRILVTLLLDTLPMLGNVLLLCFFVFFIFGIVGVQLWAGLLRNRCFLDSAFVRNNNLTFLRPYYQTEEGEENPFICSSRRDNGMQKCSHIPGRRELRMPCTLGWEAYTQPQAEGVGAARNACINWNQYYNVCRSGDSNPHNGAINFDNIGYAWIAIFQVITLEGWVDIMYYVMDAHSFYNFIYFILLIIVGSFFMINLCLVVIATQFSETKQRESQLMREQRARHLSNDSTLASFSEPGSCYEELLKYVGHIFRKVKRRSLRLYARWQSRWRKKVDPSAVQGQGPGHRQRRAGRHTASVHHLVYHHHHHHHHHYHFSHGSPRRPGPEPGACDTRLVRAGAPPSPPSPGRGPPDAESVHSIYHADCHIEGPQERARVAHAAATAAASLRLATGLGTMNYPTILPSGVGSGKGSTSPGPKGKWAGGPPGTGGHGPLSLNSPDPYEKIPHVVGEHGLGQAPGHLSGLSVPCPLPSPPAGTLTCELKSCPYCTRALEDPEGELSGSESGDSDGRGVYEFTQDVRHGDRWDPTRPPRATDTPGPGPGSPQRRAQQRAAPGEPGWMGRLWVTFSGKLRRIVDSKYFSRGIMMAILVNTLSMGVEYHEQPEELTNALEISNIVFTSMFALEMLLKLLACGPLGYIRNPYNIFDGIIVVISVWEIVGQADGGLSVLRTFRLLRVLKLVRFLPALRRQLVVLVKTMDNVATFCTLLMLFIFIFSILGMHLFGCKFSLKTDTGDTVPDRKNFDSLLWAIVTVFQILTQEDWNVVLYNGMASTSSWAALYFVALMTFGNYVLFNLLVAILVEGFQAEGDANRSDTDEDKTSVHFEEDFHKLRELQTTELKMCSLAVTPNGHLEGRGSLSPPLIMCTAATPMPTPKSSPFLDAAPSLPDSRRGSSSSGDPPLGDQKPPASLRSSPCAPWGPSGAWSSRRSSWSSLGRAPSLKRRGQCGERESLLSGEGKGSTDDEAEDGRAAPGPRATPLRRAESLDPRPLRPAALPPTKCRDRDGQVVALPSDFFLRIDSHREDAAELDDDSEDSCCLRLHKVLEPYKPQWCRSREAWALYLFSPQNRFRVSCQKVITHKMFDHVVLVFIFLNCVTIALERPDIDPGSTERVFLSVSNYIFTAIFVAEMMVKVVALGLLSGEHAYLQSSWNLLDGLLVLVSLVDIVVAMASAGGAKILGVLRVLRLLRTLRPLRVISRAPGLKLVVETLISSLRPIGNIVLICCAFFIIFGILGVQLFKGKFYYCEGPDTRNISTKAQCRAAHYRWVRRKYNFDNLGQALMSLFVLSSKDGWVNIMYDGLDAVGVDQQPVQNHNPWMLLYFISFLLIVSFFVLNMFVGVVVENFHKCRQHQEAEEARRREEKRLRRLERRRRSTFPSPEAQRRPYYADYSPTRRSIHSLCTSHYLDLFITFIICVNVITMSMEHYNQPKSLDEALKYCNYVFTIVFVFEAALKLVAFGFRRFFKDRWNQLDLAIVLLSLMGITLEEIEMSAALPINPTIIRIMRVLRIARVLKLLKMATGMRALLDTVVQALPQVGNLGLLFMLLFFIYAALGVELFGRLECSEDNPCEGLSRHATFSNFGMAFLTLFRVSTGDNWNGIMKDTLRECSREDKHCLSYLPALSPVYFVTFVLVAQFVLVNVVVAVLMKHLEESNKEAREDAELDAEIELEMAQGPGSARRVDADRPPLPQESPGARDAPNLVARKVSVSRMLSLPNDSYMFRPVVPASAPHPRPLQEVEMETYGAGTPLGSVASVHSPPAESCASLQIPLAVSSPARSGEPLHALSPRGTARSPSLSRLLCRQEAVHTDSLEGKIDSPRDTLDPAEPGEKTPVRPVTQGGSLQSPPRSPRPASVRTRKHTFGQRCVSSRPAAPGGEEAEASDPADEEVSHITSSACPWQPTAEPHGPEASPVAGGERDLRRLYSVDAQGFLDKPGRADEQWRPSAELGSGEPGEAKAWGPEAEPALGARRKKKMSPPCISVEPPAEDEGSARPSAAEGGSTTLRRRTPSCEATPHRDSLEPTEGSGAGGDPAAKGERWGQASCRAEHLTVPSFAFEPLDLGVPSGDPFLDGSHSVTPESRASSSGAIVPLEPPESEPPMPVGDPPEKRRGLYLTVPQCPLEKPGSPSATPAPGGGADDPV

Marks after values point to notes of the source that are not given here.

As to Blarina paralytic peptide 2 [BPP2], in the series with trypsin, the “proteolytic stability toward trypsin” value is reported as “highly stable”. The “proteolytic stability toward Glu-C” value in series [1] was “highly stable”. Also, in series [2], the “hyperpolarization shift in the activation of hCav3.2” value was “–11 mV”. Also, the “effect on hCav2.2” value in the series with hCav2.2 is given as “no significant effect on hCav2.2”. The Paralyzed/total numbers in series [3] (i.p., 5.6 µg/g bodyweight) is 3/3 ^b). Also, the “paralytic effect on mealworms” value in series [3] (synthetic BPP2, intraperitoneal, 5.6 µg g−1 body weight, immediately after administration) was “reliably induces paralysis and convulsions in mealworms”. The “Helicity, calculated, BestSel” value in series [4] (BestSel server) is listed as 48.9%. The “Helicity, calculated, K2D3” value in series [4] (K2D3 server) was 54.9%. In addition, the “Helicity, calculated, PDBMD2CD” value in series [4] (PDBMD2CD server) is 55.7%.

As for “human synenkephalin N-terminal part [1–53] (hSYN), Type II disulfide bond connectivity, synthetic compound 2 (peptide)”, the hyperpolarization shift of hCav3.2 activation at 0.74 µM hSYN (2); whole-cell patch clamp on HEK293T cells expressing hCav3.2, n = 5 in series [5] was -15 mV.
